Experimental data reported in patent US8735442B2, “Composition for alleviating ultraviolet radiation-induced damage” (priority 2009, dated 2014).
Like-named read-outs stand apart in the source and are kept apart here.

Experiments:
[1] = test system: human neonatal epidermal keratinocyte (Cryo NHEK-Neo); assay: UV-B irradiation-induced cell damage in keratinocytes, D-amino acids and cysteine, Alamar Blue (Example 4); type: cell-based; details: UV-B 25 mJ/cm^2; 100 μM before and after irradiation; without the amino acid about 500 to 600
Description: The cell employed was a commercially available human neonatal epidermal keratinocyte (Cryo NHEK-Neo, Sanko-Junyaku Co., Ltd.). […] Thereafter, it was cultured for 2 days in 2 mL of the ordinary medium 3 containing 100 μM D-alanine, D-serine, D-hydroxyproline, D-aspartic acid, D-cysteine or L-cysteine. As a control, the ordinary medium 3 containing PBS instead of the D-amino acid was added to the ordinary medium 3.
Thereafter, the fluorescent intensity was measured by the method described in Example 1.

[2] = test system: human dermal fibroblast derived from a patient having xeroderma pigmentosum (Group A) (XP30S (SVT)); assay: UV-A irradiation-induced cell damage in XP cells, pretreatment, Alamar Blue (Example 5); type: cell-based; details: UV-A 1 J/cm^2; pretreatment 0.1 μM; non-UV irradiating condition about 690, negative control about 630
Description: A human dermal fibroblast derived from a patient having xeroderma pigmentosum (Group […]), hereinafter referred to as “XP cell”) which was obtained from Japan Health Science Foundation was employed and cultured by the same method described in Example 3. […] The UV dose was measured using UV RADIOMETER […] Corporation).

[3] = test system: human neonatal epidermal keratinocyte (Cryo NHEK-Neo); assay: UV-B irradiation-induced cell damage in keratinocytes, Alamar Blue (Example 1); type: cell-based; details: UV-B 75 mJ/cm^2; 0.1 to 100 μM, pretreatment or posttreatment; non-irradiated about 22,000, irradiated 5,000 to 7,000
Description: The cell employed was a commercially available human neonatal epidermal keratinocyte (Cryo NHEK-Neo, Sanko-Junyaku Co., Ltd.).
Thereafter, the culture medium was supplemented with Alamar Blue (trade mark, Biosource International Inc.) at a final concentration of 10%, and its supernatant was examined for the fluorescent intensity 3 hours later with an excitation wavelength of 544 nm and a fluorescent wavelength of 590 nm as described by Ahmed S. A. et al. (J. Immunol. Method. 170, 211-224 (1994)) and in accordance with the manufacture's instruction.

[4] = test system: human neonatal dermal fibroblast (Cryo NHDF-Neo); assay: UV-A irradiation-induced cell damage in fibroblasts, pretreatment, Alamar Blue (Example 3); details: UV-A 22.5 J/cm^2; for fluorescent intensity: control about 1,100
[5] = test system: human neonatal dermal fibroblast (Cryo NHDF-Neo); details: for fluorescent intensity / alleviation of the cell damage: 0.1 μM; for fluorescent intensity: Mean ± SD, N = 4-6; for alleviation of the cell damage: UV-A 12.5 J/cm^2 and 15 J/cm^2
Description: The cell employed was a commercially available human neonatal dermal fibroblast (Cryo NHDF-Neo, Sanko-Junyaku Co., Ltd.). This cell was inoculated at 2×10^5 cells/mL to a commercially available culture dish of 35 mm in diameter (BD FALCON 353001, Beckton Dickinson Japan), where it was cultured in a commercially available cell culture medium (D-MEM (1 g/L glucose, Wako Pure Chemical Industries, Ltd.) supplemented with 10% fetal bovine serum (hereinafter referred to as “ordinary medium 2”). This cell was cultured for about 24 hours in a 5% CO2 and saturated water vapor atmosphere at 37° C.
Thereafter, the culture medium for culturing the cell described above was switched to 1 mL of a BSO medium containing a glutathione biosynthesis inhibitor BSO (L-buthionine-(S,R)-sulfoximine, Wako Pure Chemical Industries, Ltd.) at 1×10^−3%, where the culture was conducted for about 24 hours in a 5% CO2 and saturated water vapor atmosphere at 37° C. The BSO medium described above was prepared by a 200-fold dilution of a stock solution containing 0.2% BSO in ethyl alcohol with the ordinary medium 2 described above.
[…] was dissolved in a distilled water at 2×10^−3%, and the resultant solution was subjected to a 200-fold dilution (final concentration: 1×10^−5%) with a phosphate buffer solution PBS containing calcium ion and magnesium ion (PBS+) to obtain a medium (hereinafter referred to as “UV irradiation medium”), which was warmed preliminarily before use.
Before UV-A irradiation, the culture medium was replaced with 1 mL of the UV irradiation medium described above. […] The UV dose was measured using UV RADIOMETER UVR-3036/S (Topcon Corporation).
After UV irradiation, the cell was returned to the ordinary medium 2 described above where it was cultured in a 5% CO2 and saturated water vapor atmosphere at 37° C. for 21 hours. For examining the effect of adding proline after UV irradiation (hereinafter referred to as “posttreatment”), this 21-hour cultured medium was supplemented with 0.01 to 1000 μM L- or D-proline.
Thereafter, the fluorescent intensity was measured by a method described in Example 1.

[6] = UV irradiation amount 0 J/cm^2, control 12380 ± 21
[7] = UV-A 12.5 J/cm^2, control 2503 ± 629
[8] = UV-A 15 J/cm^2, control 1018 ± 89

## C[C@@H](N)C(=O)O [D-alanine]
[1]
  fluorescent intensity of Alamar Blue: about 570

## N[C@H](CC(=O)O)C(=O)O [D-aspartic acid]
[1]
  fluorescent intensity of Alamar Blue: about 600

## N[C@H](CS)C(=O)O [D-cysteine]
[1]
  fluorescent intensity of Alamar Blue: about 700
[2]
  fluorescent intensity: about 638

## N[C@H](CCC(=O)O)C(=O)O [D-glutamic acid]
[3]
  cell damage alleviating effect (fluorescent intensity of Alamar Blue): the cell damage was alleviated
[2]
  fluorescent intensity: about 675
[4]; pretreatment 1 μM
  fluorescent intensity: about 1,700

## O=C(O)[C@H]1C[C@H](O)CN1 [D-hydroxyproline]
[1]
  fluorescent intensity of Alamar Blue: about 550

## O=C(O)[C@H]1CCCN1 [D-proline]
[5]; [6]
  fluorescent intensity: 12270 ± 68 ^
[5]; [7]
  fluorescent intensity: 4615 ± 1218 *^1
[5]
  alleviation of the cell damage: the cell damage was alleviated
[5]; [8]
  fluorescent intensity: 2365 ± 648 *^2
[5]; UV-A 15 J/cm^2 and 22.5 J/cm^2, posttreatment, non-irradiated about 12,000, irradiated about 5,000 and about 3,000
  cell damage alleviating effect (fluorescent intensity of Alamar Blue): the cell damage was alleviated
[2]
  fluorescent intensity: about 664
[4]; pretreatment 0.1 μM
  fluorescent intensity: about 1,750

## N[C@H](CO)C(=O)O [D-serine]
[1]
  fluorescent intensity of Alamar Blue: about 490

## N[C@@H](CS)C(=O)O [L-cysteine]
[1]
  fluorescent intensity of Alamar Blue: about 700
[2]
  fluorescent intensity: about 688

## N[C@@H](CCC(=O)O)C(=O)O [L-glutamic acid]
[3]
  cell damage alleviating effect (fluorescent intensity of Alamar Blue): No cell damage alleviating effect was observed
[2]
  fluorescent intensity: about 658
[4]; pretreatment 1 μM
  cell damage alleviating effect: no cell damage alleviating effect was observed
  fluorescent intensity: about 1,100

## O=C(O)[C@@H]1CCCN1 [L-proline, reference compound]
[5]; [6]
  fluorescent intensity: 12211 ± 77
[5]; [7]
  fluorescent intensity: 2877 ± 834
[5]
  alleviation of the cell damage: Almost no alleviation of the cell damage
[5]; [8]
  fluorescent intensity: 1552 ± 320
[5]; summary statement referring to the Examples
  alleviating effect on ultraviolet irradiation-induced damage: no alleviating effect on ultraviolet irradiation-induced damage
[2]
  fluorescent intensity: about 583
